The record followed here is ChEMBL document CHEMBL5257046, “Characterization of Serrulatane Diterpenoids in Eremophila phyllopoda subsp. phyllopoda by Triple High-Resolution α-Glucosidase/PTP1B/Radical Scavenging Profiling, NMR Spectroscopy, DFT-GIAO NMR, and Electronic Circular Dichroism Calculations” (J Nat Prod, 2023).

Assay [1] deals with T1, Tyrosine-protein phosphatase non-receptor type 1 (Homo sapiens, UniProt P18031).
T1 sequence (P18031 whole entry): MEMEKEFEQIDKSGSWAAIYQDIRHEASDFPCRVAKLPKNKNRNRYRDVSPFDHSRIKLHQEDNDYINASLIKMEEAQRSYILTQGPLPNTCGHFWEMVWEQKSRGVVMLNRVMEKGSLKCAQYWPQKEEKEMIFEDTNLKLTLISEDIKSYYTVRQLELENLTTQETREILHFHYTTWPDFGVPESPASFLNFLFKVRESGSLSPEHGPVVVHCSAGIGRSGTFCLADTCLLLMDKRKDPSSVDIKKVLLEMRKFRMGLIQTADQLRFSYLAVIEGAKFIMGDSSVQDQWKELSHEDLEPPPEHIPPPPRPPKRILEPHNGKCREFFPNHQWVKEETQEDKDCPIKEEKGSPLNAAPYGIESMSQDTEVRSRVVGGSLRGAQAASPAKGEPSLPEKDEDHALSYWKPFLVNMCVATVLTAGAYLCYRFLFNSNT
As to the kind of experiment: Inhibition of PTP1B (unknown origin) using pNPP as substrate preincubated for 10 mins followed by substrate addition and measured every 30 sec for 10 mins by microplate photometer analysis.

The target of a further assay is Alpha glucosidase (Homo sapiens, UniProt O43451+P10253+P14410+Q2M2H8). As to the kind of experiment: Inhibition of alpha-glucosidase (unknown origin) using p-nitrophenyl-glycoside as substrate preincubated for 10 mins followed by substrate addition by microplate reader analysis. Type of assay: protein assay.

Molecule `CCCCCCCCCCCCCCCC(=O)C1=C(O)C(CO)OC1=O` (configuration not stated) had an IC50 in assay [1] of 14.4 µM.

Consider `CC(C)=CCC[C@H](C)c1cccc2c(O)cc(C)cc12`, for which 16.6 µM corresponded to half-maximal inhibition in assay [1] (IC50).

Take `CC(C)=CCC[C@H](C)[C@@H]1C[C@H](O)[C@@H](C)c2c(O)cc(C)cc21`: in assay [1], half-maximal inhibition (IC50) was put at 80 µM.

Regarding `CC(C)=CCC[C@H](CO)[C@@H]1CC[C@@H](CO)c2c(O)cc(C)cc21`, the IC50 on Alpha glucosidase came out at 28.4 µM.

On to `CC(C)=CCC[C@H](C)[C@H]1c2cc(C)cc(O)c2[C@H](C)C[C@H]1O`, for which inhibition in assay [1] was half-maximal at 105 µM (IC50).

As to `CC(C)=CCC[C@H](C)[C@@H]1CC[C@@H](CO)c2c(O)cc(C)cc21`, the half-maximal inhibitory concentration (IC50) in assay [1] turned out to be 20 µM; against Alpha glucosidase, 64.2 µM.
